The supplement of paper PMC10307832

How the values were obtained:
Assay in all cases: relative viability (nuclei count vs DMSO), 5 days (fraction); higher = more cells survive
[1] = compound: CS(=O)(=O)N1CCN(Cc2cc3nc(-c4cccc5[nH]ncc45)nc(N4CCOCC4)c3s2)CC1 [Pictilisib] + Cc1cc(Nc2cc(N3CCN(C)CC3)nc(Sc3ccc(NC(=O)C4CC4)cc3)n2)n[nH]1 [Tozasertib] (partner 0.1 µM)
Summary of the method: (§1)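 The day after seeding in 1536-well plates, lung cancer cell lines were treated by pin tool with a single drug, or with a fixed anchor-drug dose together with five library-drug doses (not always all listed) in √10 steps. After 5 days, a combined fix-and-stain solution (final 0.05% Triton X-100, 1% formaldehyde, 1 ug/ml Hoechst) was added. Nuclei counted on 4× images gave relative viability as treated counts over vehicle counts, reported as the median of duplicate plates.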

[2] = compound: NC1(c2ccc(-c3nc4ccn5c(=O)[nH]nc5c4cc3-c3ccccc3)cc2)CCC1 [MK-2206] + CCNC(=O)c1noc(-c2cc(C(C)C)c(O)cc2O)c1-c1ccc(CN2CCOCC2)cc1 [Luminespib] (partner 0.01 µM)
Summary of the method: as §1

[3] = compound: NC1(c2ccc(-c3nc4ccn5c(=O)[nH]nc5c4cc3-c3ccccc3)cc2)CCC1 [MK-2206] + Cc1nc(Nc2ncc(C(=O)Nc3c(C)cccc3Cl)s2)cc(N2CCN(CCO)CC2)n1 [Dasatinib] (partner 0.075 µM)
Summary of the method: as §1

[4] = compound: CS(=O)(=O)N1CCN(Cc2cc3nc(-c4cccc5[nH]ncc45)nc(N4CCOCC4)c3s2)CC1 [Pictilisib] + O=C(c1cc(Cc2n[nH]c(=O)c3ccccc23)ccc1F)N1CCN(C(=O)C2CC2)CC1 [Olaparib] (partner 8 µM)
Summary of the method: as §1

[5] = compound: NC1(c2ccc(-c3nc4ccn5c(=O)[nH]nc5c4cc3-c3ccccc3)cc2)CCC1 [MK-2206] + Cc1nc(NC(=O)N2CCC[C@H]2C(N)=O)sc1-c1ccnc(C(C)(C)C(F)(F)F)c1 [Alpelisib] (partner 2 µM)
Summary of the method: as §1

Cell Line | relative viability ([1]; first compound 0.02 µM) | relative viability ([1]; first compound 0.06325 µM) | relative viability ([1]; first compound 0.6325 µM) | relative viability ([1]; first compound 2 µM) | relative viability ([2]; first compound 0.01 µM) | relative viability ([2]; first compound 0.03162 µM) | relative viability ([2]; first compound 0.3162 µM) | relative viability ([2]; first compound 1 µM) | relative viability ([3]; first compound 0.01 µM) | relative viability ([3]; first compound 0.03162 µM) | relative viability ([3]; first compound 0.3162 µM) | relative viability ([3]; first compound 1 µM) | relative viability ([4]; first compound 0.02 µM) | relative viability ([4]; first compound 0.06325 µM) | relative viability ([4]; first compound 0.6325 µM) | relative viability ([4]; first compound 2 µM) | relative viability ([5]; first compound 0.01 µM) | relative viability ([5]; first compound 0.03162 µM) | relative viability ([5]; first compound 0.3162 µM) | relative viability ([5]; first compound 1 µM)
NCI-H1755 | 0.548 | 0.605 | 0.475 | 0.356 | 0.411 | 0.636 | 0.469 | 0.346 | 0.443 | 0.424 | 0.406 | 0.35 | 0.872 | 0.84 | 0.806 | 0.403 | 0.919 | 0.93 | 0.881 | 0.863
LOU-NH91 | 0.744 | 0.664 | 0.566 | 0.495 | 0.344 | 0.303 | 0.32 | 0.373 | 0.628 | 0.638 | 0.571 | 0.375 | 0.946 | 0.908 | 0.875 | 0.695 | 0.73 | 0.796 | 0.667 | 0.682
EMC-BAC-2 | 0.304 | 0.31 | 0.297 | 0.242 | 1.22 | 1.18 | 1.08 | 1.07 | 0.266 | 0.334 | 0.335 | 0.312 | 0.513 | 0.52 | 0.407 | 0.334 | 0.768 | 0.764 | 0.729 | 0.693
NCI-H2023 | 0.416 | 0.403 | 0.197 | 0.0836 | 0.681 | 0.66 | 0.619 | 0.413 | 0.6 | 0.542 | 0.443 | 0.362 | 0.521 | 0.451 | 0.354 | 0.134 | 0.517 | 0.598 | 0.472 | 0.405
